# Test system: Escherichia coli K12
# Assay: Digital same-sample filtration AST at two antibiotic concentrations (Example 13)
# Type: cell-based
# Settings: for Both (number of wells) / Empty (number of wells) / Extracellular only (number of wells) / Intracellular only (number of wells): 19.0 to 21.2 minutes to centrifugation, 32 partitions, qPCR
# Method: A 96-well microtiter plate was prepared for the experiment by placing Mueller-Hinton Broth (MHB) growth media and one of three different concentrations of ertapenem (ETP) sodium salt into each well. 32 of the wells contained 0 μg/mL of ETP antibiotic and served as reference condition antibiotic exposures; pure water was added instead of ETP dissolved in pure water. Another 32 of the wells contained 0.417 μg/mL of ETP (for a final concentration of 0.25 μg/mL). The last 32 wells contained 3.33 μg/mL of ETP (for a final concentration of 2.0 μg/mL). The 64 wells containing some ertapenem constituted the treated condition antibiotic exposures.
# The inoculum was small enough that no detectable difference in the sample's optical density at 600 mm (OD600) was detectable by a spectrophotometer with a sensitivity of 0.01 absorbance units. After an incubation at 37° C., the media became turbid with an OD600 of 0.334 absorbance units after 3.5 hours of incubation.
# In this experiment, the number and volume of sample partitions was restricted, for logistical reasons, to 96 partitions 25 μL in volume, specifically the wells of a 96-well plate. A target loading density of 0.5 cells per partition was set. The contrived clinical sample was diluted by a factor of 9.97239*10^−7 via a three-step serial dilution to an estimated density of […].
# To begin the AST protocol, the diluted contrived clinical specimen was physically partitioned into the 96 samples by transferring 10 μL of the specimen, in 96 separate transfers (actually 8 transfers with a multichannel pipette), to each well of the 96-well microtiter plate containing ETP and MHB. Then, the entire plate was sealed with a RNase/DNase-free plastic, adhesive sealing membrane and placed on a thermal block set to 37° C. and shaking at 700 rpm.
# After 8 minutes of incubation at 37° C., the exposures were taken back to the lab bench. The entire volume of each antibiotic exposure was transferred to a Millipore® 96-well sterile polystyrene MultiScreenHTS® filter plate (Millipore-Sigma MSGVS2210). Each well of the filter plate contained a hydrophilic polyvinylidene fluoride (PVDF) filter membrane with a […]. A 96-well polypropylene microtiter plate was affixed to the bottom of the filter plate. The filter plate was promptly centrifuged at 2200 relative centrifugal force for 5.0 minutes to speed the passage of the antibiotic exposure sample through the filter and into 96-well microtiter plate. The collected fluid was called the “filtrate.” In total, between 19.0 and 21.2 minutes elapsed between the first addition of cells to the exposure volume and the start of the centrifugation. The total time elapsed differed slightly among wells because cells could not be manually added to all wells at the exact same time.
# 8 μL of each filtrate was transferred to new containers containing 6 μL of Lucigen DNA Extraction Buffer, vortexed, centrifuged briefly to collect liquid at the bottom of the tube, and then heated for 6 minutes at 65° C. and then 4 minutes at 98° C.
# After the creation of the filtrates, 30 μL of fresh MHB media was added to all filters. […] The purpose of this new volume of MHB was to wash away residual extracellular nucleic acids that might be confused for intracellular nucleic acids when the lysate was collected. The 30 μL of fresh MHB was centrifuged for 5 minutes at 2200 rcf into a clean 96-well plate, then discarded.
# Next, 20 μL of DNA Extraction Buffer was placed into all of the wells of the filter plate, on top of the filters. The filter plate was heated to 65° C. for 6 minutes, without shaking, on a ThermoMixer® flat surface heating block. Intracellular nucleic acids were released from lysed cells into the DNA Extraction Buffer fluid. Then, the filter plate was taped to a clean 96-well polypropylene microtiter plate and centrifuged at 2200 rcf for 5 minutes. The DEB fluid that flowed through the filter was collected in the microtiter plate below the filter plate. […]
smiles,measurement,setting,value
"C[C@@H](O)[C@H]1C(=O)N2C(C(=O)O)=C(S[C@@H]3CN[C@H](C(=O)Nc4cccc(C(=O)O)c4)C3)[C@H](C)[C@H]12 [ETP, ertapenem]",susceptibility interpretation,"2.0 μg/mL condition, more exposure time or more cells needed for a conclusive result",more likely to be susceptible
same,proportion of lysis,"2.0 μg/mL condition, reference background 0/29",2/34
same,Intact (most likely number of cells),Treated 0.25 μg ETP/mL,26
same,Lysed (most likely number of cells),Treated 0.25 μg ETP/mL,0
same,Both (number of wells),Treated 0.25 μg ETP/mL,0
same,Empty (number of wells),Treated 0.25 μg ETP/mL,15
same,Extracellular only (number of wells),Treated 0.25 μg ETP/mL,0
same,Intracellular only (number of wells),Treated 0.25 μg ETP/mL,17
same,Intact (most likely number of cells),Treated 2.00 μg ETP/mL,32
same,Lysed (most likely number of cells),Treated 2.00 μg ETP/mL,2
same,Both (number of wells),Treated 2.00 μg ETP/mL,2
same,Empty (number of wells),Treated 2.00 μg ETP/mL,10
same,Extracellular only (number of wells),Treated 2.00 μg ETP/mL,0
same,Intracellular only (number of wells),Treated 2.00 μg ETP/mL,20

# From patent publication US20220282304A1, “SAME-SAMPLE ANTIBIOTIC SUSCEPTIBILITY TEST AND RELATED COMPOSITIONS, METHODS AND SYSTEMS” (CALIFORNIA INSTITUTE OF TECHNOLOGY, priority 2021, published 2022)
